This note sets out measurements from ChEMBL document CHEMBL5321253, “Discovery of novel pyridinones as MGAT2 inhibitors for the treatment of metabolic disorders” (Bioorg Med Chem Lett, 2023).

A word on the amount remaining: it is what is left of the initial amount, in per cent. The low end stands for more turnover, the high end for less turnover.

Data set [1] in a line: in vitro. The following applies: human, liver microsomes. For orientation: Microsomes from liver hold many membrane-bound enzymes, among them those of drug oxidation.
The nature of data set [2]: in vitro. The following applies: mouse, liver microsomes.

Take `Cc1ccc(-c2cc(-c3ccc(OCCCC(F)(F)F)cc3)[nH]c(=O)c2NC(=O)c2ccno2)cc1`: the amount remaining at 10 min came to 64% in data set [1] and 27% in data set [2].
